The record followed here is ChEMBL document CHEMBL1158701, “Sesquiterpene phenylpropanoids from Ferula fukanensis and their nitric oxide production inhibitory effects” (J Nat Prod, 2005).

pIC50: −log10 of the molar value. The source made the active and inactive calls. No cut-off for these calls is given here.

Test [1] deals with RAW264.7. Kind of test: Inhibition of LPS/IFNgamma -induced NO production in mouse RAW264.7 cells at 30 ug/ml after 16 hrs. It counts as functional, cell-based.
For test [2], the system named is RAW264.7. The test can be described thus: Inhibition of LPS/IFNgamma -induced NO production in mouse RAW264.7 cells after 16 hrs. It counts as functional, cell-based. The note with it: RAW264.7, 16 h.

Regarding `CC(C)=CCC/C(C)=C/CC[C@]1(C)OC(=O)[C@H](C(=O)c2ccc(O)cc2O)[C@H]1C` (relative stereo), the result in the test with RAW264.7 [1] was inactive. Still for that read-out and setting: in the case of `COc1ccc(C(=O)[C@H]2C(=O)O[C@](C)(CC/C=C(\C)CCC=C(C)C)[C@@H]2C)c(O)c1` (relative stereo) it was “inactive”.

As to `CCCCOC(=O)C(=O)c1ccc(O)cc1O` [FUKANEKETOESTER A], the pIC50 (in general, the IC50 on a negative log10 scale, so that one unit is a factor of ten) in the test with RAW264.7 [2] was 3.95. `COc1ccc(C(=O)[C@H]2C(=O)O[C@](C)(CC/C=C(\C)Cc3cc(C)co3)[C@@H]2C)c(O)c1` (relative stereo) [FUKANEDONE E] showed a pIC50 with RAW264.7 [2] of 4.12.

In the test on RAW264.7 [2], `CC(C)=CC(=O)/C=C(/C)CCC[C@@]1(C)OC(=O)[C@H](C(=O)c2ccc(O)cc2O)[C@H]1C` (relative stereo) [FUKANEDONE D] had a pIC50 of 4.56. Turning to `CC(C)=CC(=O)/C=C(\C)CCC[C@@]1(C)OC(=O)[C@H](C(=O)c2ccc(O)cc2O)[C@H]1C` (relative stereo) [FUKANEDONE C], the pIC50 in the test on RAW264.7 [2] is 5.17.
